From publication PMC8080777, “Discovery, optimization, and evaluation of non-bile acid FXR/TGR5 dual agonists” (Scientific Reports, 2021)

How the values were obtained:
[1] = molecular target: T1, TGR5 (Homo sapiens, UniProt Q8TDU6); test: TGR5 cAMP assay in CHO cells transfected with TGR5 (cAMP Hunter eXpress, Discover X); type: cell-based; settings: for TGR5 Efficacy (%) (1 µM) / TGR5 Efficacy (%) (10 µM): % vs INT-767 10 µM as 100%; for EC50: 4 parameter logistic fit
T1 construct: host or cells: CHO cells
T1 sequence (Q8TDU6 1-330): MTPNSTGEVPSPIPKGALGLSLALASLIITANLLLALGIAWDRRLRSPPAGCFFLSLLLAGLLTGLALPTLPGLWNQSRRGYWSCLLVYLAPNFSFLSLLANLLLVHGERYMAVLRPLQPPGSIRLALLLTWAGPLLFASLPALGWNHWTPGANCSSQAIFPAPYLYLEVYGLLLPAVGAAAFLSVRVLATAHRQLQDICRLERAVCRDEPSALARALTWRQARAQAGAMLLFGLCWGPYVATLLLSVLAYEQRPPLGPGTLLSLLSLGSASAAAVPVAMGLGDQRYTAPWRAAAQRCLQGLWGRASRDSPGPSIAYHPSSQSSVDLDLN

[2] = OGTT blood glucose; type: in vivo; settings: single oral 100 mg/kg, overnight-fasted C57 mice, 2 g/kg glucose one hour later, blood 15 min after loading
Description: To measure blood glucose levels, 100 mg/kg of test compounds 20p and 20q or vehicle were administered orally to overnight-fasted C57 mice (n = 5 mice/group, control; n = 10). One hour later, all mice were challenged with 2 g/kg glucose, and blood samples were collected after 15 min of glucose loading. The blood glucose levels were measured using LabAssay Glucose (FUJIFILM Wako Pure Chemical Corporation, Osaka City, Osaka, Japan)[56].
Amersham Place Little Chalfont Buckinghamshire, HP7 9NA UK), and cDNA was synthesized using ReverTra Ace qPCR RT Master Mix (Toyobo Co., Ltd., Osaka City, Osaka, Japan). Real-time PCR was performed using a CFX96 Touch Real-Time PCR Analysis System (CFX Manager, Bio-Rad, 1000 Alfred Nobel Drive, Hercules, CA, USA), and the mRNA expression levels of SHP and CYP7A1, the target gene s of FXR, were measured using the intercalator […]
In vivo assay protocol (GLP-1)
Measurement of GLP-1 secretion: To measure plasma GLP-1 levels, 100 mg/kg of compounds 20p and 20q were administered orally to overnight -fasted C57 mice (n=5 animals/group). One hour later, all mice were challenged with 2 g/kg glucose, and blood samples were collected after 15 min of glucose challenge test. Plasma GLP-1 levels were measured using the GLP-1 ELISA Kit Wako, High Sensitive (FUJIFILM Wako Pure Chemical Corporation, Osaka city, Osaka, […]
In vivo assay protocol (OGTT test) […]

SMILES: COc1cc(Cl)cc(N(CC23CCC(c4ccc(OC)c(C#N)c4)(CC2)CC3)C(=O)c2ccncc2C)c1 [Compound 20p]
- TGR5 agonist activity (in words) [1]: strong dual agonist potencies
- TGR5 Efficacy (%) (1 µM) [1]: 51.1%
- TGR5 Efficacy (%) (10 µM) [1]: 62.4%
- EC50 [1]: 420 nM
- Blood glucose level on OGTT [2]: robustly lowered the blood glucose level

SMILES: COc1ccc(C23CCC(CN(C(=O)c4ccncc4C)c4cc(Cl)cc(Cl)c4)(CC2)CC3)cc1C#N [Compound 20q]
- TGR5 agonist activity (in words) [1]: strong dual agonist potencies
- TGR5 Efficacy (%) (1 µM) [1]: 51.2%
- TGR5 Efficacy (%) (10 µM) [1]: 80.2%
- EC50 [1]: 790 nM
- Blood glucose level on OGTT [2]: did not reduce the blood glucose level
